{
  "source": "PubChem BioAssay AID1963436",
  "about": "(Molecular Pharmacology Branch, DTP, NCI, 2024)",
  "tested_on": "OVCAR-5 complex spheroid (HUVEC/MSC), viability % T/C",
  "experiment": "Anticancer human tumor OVCAR-5 cell line growth inhibition [Asc];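 also: spheroids exposed to agents for 7 days before readout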;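 as to viability, T/C: 100% = DMSO vehicle-treated wells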",
  "conditions": "for IC50: curve of first compound; for viability, T/C: stronger effect = lower value",
  "outline": "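Tumor cells were grown as multicellular spheroids with stromal HUVEC and mesenchymal stem cells and treated singly or in combination. Concentrations fell in half-log steps from the clinical Cmax, or from 10 microM where none was known.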",
  "data": [
    {"smiles": "Cc1nc(N2CCC3(CC2)COC(C)C3N)c(CO)nc1Sc1ccnc(N)c1Cl", "note": "(stereo not given) + CCN1C(C(=O)NC23CCC(C(=O)O)(CC2)CC3)C(c2cccc(Cl)c2F)C2(C(=O)Nc3cc(Cl)ccc32)C12CCCCC2", "values": [
      {"measurement": "IC50", "setting": "second compound 0.03 µM", "value": "> 3000", "unit": "nM"},
      {"measurement": "IC50", "setting": "second compound 0.0949 µM", "value": "> 3000", "unit": "nM"},
      {"measurement": "IC50", "setting": "second compound 0.3 µM", "value": "> 3000", "unit": "nM"},
      {"measurement": "IC50", "setting": "second compound 0.949 µM", "value": "> 3000", "unit": "nM"},
      {"measurement": "IC50", "setting": "second compound 3 µM", "value": "> 3000", "unit": "nM"},
      {"measurement": "viability, T/C", "setting": "second compound 0.03 µM, first compound 0.00949 µM", "value": 104, "unit": "%"},
      {"measurement": "viability, T/C", "setting": "second compound 0.03 µM, first compound 0.03 µM", "value": 101, "unit": "%"},
      {"measurement": "viability, T/C", "setting": "second compound 0.03 µM, first compound 0.0949 µM", "value": 79.8, "unit": "%"},
      {"measurement": "viability, T/C", "setting": "second compound 0.03 µM, first compound 0.3 µM", "value": 79.8, "unit": "%"},
      {"measurement": "viability, T/C", "setting": "second compound 0.03 µM, first compound 0.949 µM", "value": 71.4, "unit": "%"},
      {"measurement": "viability, T/C", "setting": "second compound 0.03 µM, first compound 3 µM", "value": 60.6, "unit": "%"},
      {"measurement": "viability, T/C", "setting": "second compound 0.0949 µM, first compound 0.00949 µM", "value": 108, "unit": "%"},
      {"measurement": "viability, T/C", "setting": "second compound 0.0949 µM, first compound 0.03 µM", "value": 97.1, "unit": "%"},
      {"measurement": "viability, T/C", "setting": "second compound 0.0949 µM, first compound 0.0949 µM", "value": 89.4, "unit": "%"},
      {"measurement": "viability, T/C", "setting": "second compound 0.0949 µM, first compound 0.3 µM", "value": 82, "unit": "%"},
      {"measurement": "viability, T/C", "setting": "second compound 0.0949 µM, first compound 0.949 µM", "value": 70.8, "unit": "%"},
      {"measurement": "viability, T/C", "setting": "second compound 0.0949 µM, first compound 3 µM", "value": 56, "unit": "%"},
      {"measurement": "viability, T/C", "setting": "second compound 0.3 µM, first compound 0.00949 µM", "value": 112, "unit": "%"},
      {"measurement": "viability, T/C", "setting": "second compound 0.3 µM, first compound 0.03 µM", "value": 105, "unit": "%"},
      {"measurement": "viability, T/C", "setting": "second compound 0.3 µM, first compound 0.0949 µM", "value": 86.1, "unit": "%"},
      {"measurement": "viability, T/C", "setting": "second compound 0.3 µM, first compound 0.3 µM", "value": 72.4, "unit": "%"},
      {"measurement": "viability, T/C", "setting": "second compound 0.3 µM, first compound 0.949 µM", "value": 64.2, "unit": "%"},
      {"measurement": "viability, T/C", "setting": "second compound 0.3 µM, first compound 3 µM", "value": 60.8, "unit": "%"},
      {"measurement": "viability, T/C", "setting": "second compound 0.949 µM, first compound 0.00949 µM", "value": 107, "unit": "%"},
      {"measurement": "viability, T/C", "setting": "second compound 0.949 µM, first compound 0.03 µM", "value": 105, "unit": "%"},
      {"measurement": "viability, T/C", "setting": "second compound 0.949 µM, first compound 0.0949 µM", "value": 96.3, "unit": "%"},
      {"measurement": "viability, T/C", "setting": "second compound 0.949 µM, first compound 0.3 µM", "value": 73.6, "unit": "%"},
      {"measurement": "viability, T/C", "setting": "second compound 0.949 µM, first compound 0.949 µM", "value": 69.5, "unit": "%"},
      {"measurement": "viability, T/C", "setting": "second compound 0.949 µM, first compound 3 µM", "value": 70.3, "unit": "%"},
      {"measurement": "viability, T/C", "setting": "second compound 3 µM, first compound 0.00949 µM", "value": 104, "unit": "%"},
      {"measurement": "viability, T/C", "setting": "second compound 3 µM, first compound 0.03 µM", "value": 110, "unit": "%"},
      {"measurement": "viability, T/C", "setting": "second compound 3 µM, first compound 0.0949 µM", "value": 99.3, "unit": "%"},
      {"measurement": "viability, T/C", "setting": "second compound 3 µM, first compound 0.3 µM", "value": 79, "unit": "%"},
      {"measurement": "viability, T/C", "setting": "second compound 3 µM, first compound 0.949 µM", "value": 68.4, "unit": "%"},
      {"measurement": "viability, T/C", "setting": "second compound 3 µM, first compound 3 µM", "value": 65.9, "unit": "%"}
    ]},
    {"smiles": "Cn1ncnc1[C@H]1c2n[nH]c(=O)c3cc(F)cc(c23)N[C@@H]1c1ccc(F)cc1", "note": "+ CNC(C)C(=O)NC1CN(S(=O)(=O)c2cccc(S(=O)(=O)N3CCC4CCC(C(=O)NC(c5ccccc5)c5ccccc5)N4C(=O)C(NC(=O)C(C)NC)C3)c2)CCC2CCC(C(=O)NC(c3ccccc3)c3ccccc3)N2C1=O", "values": [
      {"measurement": "IC50", "setting": "second compound 0.01 µM", "value": "> 100", "unit": "nM"},
      {"measurement": "IC50", "setting": "second compound 0.0316 µM", "value": "> 100", "unit": "nM"},
      {"measurement": "IC50", "setting": "second compound 0.1 µM", "value": "> 100", "unit": "nM"},
      {"measurement": "IC50", "setting": "second compound 0.316 µM", "value": "> 100", "unit": "nM"},
      {"measurement": "IC50", "setting": "second compound 1 µM", "value": "> 100", "unit": "nM"},
      {"measurement": "viability, T/C", "setting": "second compound 0.01 µM, first compound 0.000316 µM", "value": 92.5, "unit": "%"},
      {"measurement": "viability, T/C", "setting": "second compound 0.01 µM, first compound 0.001 µM", "value": 86.9, "unit": "%"},
      {"measurement": "viability, T/C", "setting": "second compound 0.01 µM, first compound 0.00316 µM", "value": 85.9, "unit": "%"},
      {"measurement": "viability, T/C", "setting": "second compound 0.01 µM, first compound 0.01 µM", "value": 84.3, "unit": "%"},
      {"measurement": "viability, T/C", "setting": "second compound 0.01 µM, first compound 0.0316 µM", "value": 92.3, "unit": "%"},
      {"measurement": "viability, T/C", "setting": "second compound 0.01 µM, first compound 0.1 µM", "value": 86.5, "unit": "%"},
      {"measurement": "viability, T/C", "setting": "second compound 0.0316 µM, first compound 0.000316 µM", "value": 81.8, "unit": "%"},
      {"measurement": "viability, T/C", "setting": "second compound 0.0316 µM, first compound 0.001 µM", "value": 77.6, "unit": "%"},
      {"measurement": "viability, T/C", "setting": "second compound 0.0316 µM, first compound 0.00316 µM", "value": 84.5, "unit": "%"},
      {"measurement": "viability, T/C", "setting": "second compound 0.0316 µM, first compound 0.01 µM", "value": 73.2, "unit": "%"},
      {"measurement": "viability, T/C", "setting": "second compound 0.0316 µM, first compound 0.0316 µM", "value": 73.9, "unit": "%"},
      {"measurement": "viability, T/C", "setting": "second compound 0.0316 µM, first compound 0.1 µM", "value": 74.6, "unit": "%"},
      {"measurement": "viability, T/C", "setting": "second compound 0.1 µM, first compound 0.000316 µM", "value": 78.3, "unit": "%"},
      {"measurement": "viability, T/C", "setting": "second compound 0.1 µM, first compound 0.001 µM", "value": 88.3, "unit": "%"},
      {"measurement": "viability, T/C", "setting": "second compound 0.1 µM, first compound 0.00316 µM", "value": 81.6, "unit": "%"},
      {"measurement": "viability, T/C", "setting": "second compound 0.1 µM, first compound 0.01 µM", "value": 71.7, "unit": "%"},
      {"measurement": "viability, T/C", "setting": "second compound 0.1 µM, first compound 0.0316 µM", "value": 73.4, "unit": "%"},
      {"measurement": "viability, T/C", "setting": "second compound 0.1 µM, first compound 0.1 µM", "value": 68.5, "unit": "%"},
      {"measurement": "viability, T/C", "setting": "second compound 0.316 µM, first compound 0.000316 µM", "value": 81.5, "unit": "%"},
      {"measurement": "viability, T/C", "setting": "second compound 0.316 µM, first compound 0.001 µM", "value": 85.8, "unit": "%"},
      {"measurement": "viability, T/C", "setting": "second compound 0.316 µM, first compound 0.00316 µM", "value": 85.1, "unit": "%"},
      {"measurement": "viability, T/C", "setting": "second compound 0.316 µM, first compound 0.01 µM", "value": 71.5, "unit": "%"},
      {"measurement": "viability, T/C", "setting": "second compound 0.316 µM, first compound 0.0316 µM", "value": 80.7, "unit": "%"},
      {"measurement": "viability, T/C", "setting": "second compound 0.316 µM, first compound 0.1 µM", "value": 74.8, "unit": "%"},
      {"measurement": "viability, T/C", "setting": "second compound 1 µM, first compound 0.000316 µM", "value": 88.3, "unit": "%"},
      {"measurement": "viability, T/C", "setting": "second compound 1 µM, first compound 0.001 µM", "value": 94.4, "unit": "%"},
      {"measurement": "viability, T/C", "setting": "second compound 1 µM, first compound 0.00316 µM", "value": 78.6, "unit": "%"},
      {"measurement": "viability, T/C", "setting": "second compound 1 µM, first compound 0.01 µM", "value": 72.7, "unit": "%"},
      {"measurement": "viability, T/C", "setting": "second compound 1 µM, first compound 0.0316 µM", "value": 76.1, "unit": "%"},
      {"measurement": "viability, T/C", "setting": "second compound 1 µM, first compound 0.1 µM", "value": 69.1, "unit": "%"}
    ]}
  ]
}
